Active and inactive are the calls of the source. No rule for the calls is given here.

In the assay the target is Muscarinic acetylcholine receptor M4 (Mus musculus) (UniProt P32211). Description: allosteric agonists of mouse M4 receptor, confirmation, cell-based (AID 643). Particulars: HEK293 cells expressing M4, thallium flux fluorescence, 2 min; hits give high values.
Sequence of Muscarinic acetylcholine receptor M4 (Mus musculus) (P32211 whole entry, looked up): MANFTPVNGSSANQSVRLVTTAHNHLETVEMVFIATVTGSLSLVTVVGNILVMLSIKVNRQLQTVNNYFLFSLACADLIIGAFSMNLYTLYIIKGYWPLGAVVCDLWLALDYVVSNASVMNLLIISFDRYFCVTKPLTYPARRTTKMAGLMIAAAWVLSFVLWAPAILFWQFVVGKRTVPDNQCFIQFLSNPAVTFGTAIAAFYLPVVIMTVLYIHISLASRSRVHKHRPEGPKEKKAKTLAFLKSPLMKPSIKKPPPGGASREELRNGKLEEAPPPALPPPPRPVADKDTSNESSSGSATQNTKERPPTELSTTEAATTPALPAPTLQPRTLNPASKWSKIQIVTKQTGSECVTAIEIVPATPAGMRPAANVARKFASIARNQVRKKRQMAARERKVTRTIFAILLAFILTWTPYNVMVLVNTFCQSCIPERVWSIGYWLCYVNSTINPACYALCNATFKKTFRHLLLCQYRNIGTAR
Regarding `CC(=O)c1c(C)c2c(n1CCN(C)C)CCCC2`, the response slope is 0.00747.

Take `CCc1cccc(NC(=O)Cn2cc3c(n2)CCCC3)c1`: the response slope is 0.00695 (inactive).

With `COc1cc(OC)cc(-c2nnc(Nc3nc4c(F)cccc4s3)o2)c1`, the response slope was 0.0119.

On to `Cc1cccc2sc(NC(=O)Cn3cccc3)nc12`, for which the response slope was 0.0102.

Consider `CCOc1ccccc1OCCCCN1CCCC1`, for which the response slope was 0.0043 (inactive).

With `CNS(=O)(=O)c1cccc(C(=O)OCC(=O)c2cc(C)n(-c3ccc4c(c3)OCO4)c2C)c1`, the response slope is 0.00508 (inactive).

As for `COc1ccc(-c2noc(CSc3nc4ccccc4c(=O)n3-c3ccccc3)n2)cc1OC`, the response slope was 0.00773.

Turning to `Cc1ccccc1-n1nc(C)c2cc(C(=O)NCc3cccnc3)sc21`, the response slope is 0.00964.

With `CCCCCCc1cc2cc(-c3nnc(-c4ccccc4O)o3)c(=O)oc2cc1O`, the response slope was 0.0548.

Turning to `O=c1oc2c3c4c(cc2c(C(F)(F)F)c1CCN1CCOCC1)CCCN4CCC3`, the response slope was 0.0204.

As for `Cc1ccc(CNC(=O)c2cc3c(=O)n4ccccc4nc3n(CC3CCCO3)c2=N)cc1` (stereo not given), the response slope was 0.00307 (inactive).

On to `Fc1cccc2sc(Nc3nnc(-c4ccco4)o3)nc12`, for which the response slope was 0.0206.

As to `O=C(Nc1nc(-c2ccc(S(=O)(=O)N3CCCC3)cc2)cs1)C1COc2ccccc2O1` (stereo not given), the response slope is 0.00604 (inactive).

As for `Clc1ccccc1OCCCCn1ccnc1`, the response slope is 0.00392 (inactive).

In the case of `COc1cc(/C=C/C(=O)CC(=O)/C=C/c2ccc(O)c(OC)c2)ccc1O`, the response slope is 0.00973.

With `CCOc1ccc(-n2c(O)c(C=Nc3ccc(N(CC)CC)cc3)c(=O)[nH]c2=O)cc1`, the response slope was -0.00673 (inactive).

Consider `CCn1c(SC(C)C(=O)O)nc2sc3c(c2c1=O)CCC3` (stereo not given), for which the response slope is 0.0132.

Turning to `C[C@H]1OC[C@@H](C[N+](C)(C)C)O1`, the response slope is 0.0167.

Consider `O=C(Nc1nc(-c2ccc(S(=O)(=O)N3CCCCCC3)cc2)cs1)c1cccs1`, for which the response slope is 0.0142.

For the molecule `Cc1c2ccncc2c(C)c2c1[nH]c1ccccc12`, the response slope is 0.0125.

With `S=c1nc(C2CC2)[nH]c2ccccc12`, the response slope is -0.00904 (inactive).

As to `CCCCN(CCCC)c1nc2ccccc2nc1C(C#N)C(=O)NCCCOC` (stereo not given), the response slope is 0.00562 (inactive).

As to `CN(C)c1ccc(/C=C/C(O)=C2/C(=O)N(C)C3(C)CC2c2ccccc2O3)cc1` (stereo not given), the response slope was 0.00464 (inactive).

`CCOC(=O)c1cc(-c2nnc(-c3ccc(Oc4ccccc4)cc3)o2)c(C)nc1C`: the response slope was 0.0113.

Take `Cc1csc(NC(=O)c2sc3nc(-c4cccs4)ccc3c2N)n1`: the response slope was 0.00327 (inactive).

With `CCCCNC(=O)Nc1ccnn1C1CCCCC1`, the response slope was 0.00873.

On to `CCN(CC)c1ccc2cc(-c3nc4ccccc4[nH]3)c(=O)oc2c1`, for which the response slope is 0.0191.

On to `CC(=O)OC(C)C[N+](C)(C)C` (stereo not given), for which the response slope was 0.00597 (inactive).

`COc1ccc(CCn2c(=N)c(C(=O)NCc3ccco3)cc3c(=O)n4ccccc4nc32)cc1`: the response slope is 0.000825 (inactive).

With `Cc1c(C#N)sc2nc(-c3ccccc3)nc(N3CCCC3)c12`, the response slope was 0.0119.

For the molecule `Cc1ccc(SCc2c(C#N)c3ccccc3n2C)cc1`, the response slope is 0.00835.

`Cc1ccc(-c2nn(-c3ccccc3)cc2/C=C(\C#N)c2cccc(C#N)c2)o1`: the response slope was 0.0107.

On to `O=C(O)c1cc(O)c2c(c1)C(=O)c1cccc(O)c1C2=O`, for which the response slope was 0.00514 (inactive).

For the molecule `O=C(Nc1nc(=O)c2ccccc2s1)c1ccccc1`, the response slope was 0.00981.

As to `CN(C)C(CNC(=O)Nc1cccc(Cl)c1)c1cccnc1` (stereo not given), the response slope was 0.00144 (inactive).

Regarding `CCOC(=O)c1cnn2c1[nH]c(=O)c1ccccc12`, the response slope is 0.00865.

Turning to `Cc1ccc(Cl)cc1N1CCN(C(=O)CN2C(=O)c3cccc4cccc2c34)CC1`, the response slope is 0.00517 (inactive).

Regarding `O=c1c2ccccc2nc(-c2cccc(Cl)c2)n1O`, the response slope is 0.00746.

`Cc1ccc(S(=O)(=O)/C(C#N)=C/c2c(N3CCN(C)CC3)nc3c(C)cccn3c2=O)cc1`: the response slope was 0.00236 (inactive).

For the molecule `CCOC(=O)CC(=O)CSc1nc(-c2cccnc2)ccc1C#N`, the response slope was 0.00405 (inactive).

With `CCOC(=O)C1=C[C@]2(CC)CCCN3CCc4c(n1c1ccccc41)[C@@H]32`, the response slope was 0.00841.

On to `N#Cc1c(NC(=O)c2ccc(Br)o2)n(-c2ccccc2)c2nc3ccccc3nc12`, for which the response slope is 0.00921.

As to `CCN(CC)C(=O)c1sc2nc(-c3cccs3)cc(-c3cccs3)c2c1N`, the response slope was -0.000749 (inactive).

With `C/C(CC1(O)C(=O)N(Cc2ccccc2)c2ccccc21)=N\O` (stereo not given), the response slope was 0.00834.

Take `Cc1nn(-c2ccc(Cl)cc2)c2sc(C(=O)N3CCN(c4ccccn4)CC3)cc12`: the response slope is 0.00468 (inactive).
